Experimental data taken from publication PMC10653066 (ACS Omega, 2023).
Read-outs that look alike come from different tables or passages of the source.

Tests used:
[1] = system: YFV 17D; experiment: microbe, parasite or virus in culture; type: cell-based, Yellow fever virus; conditions: for EC50: Yellow fever virus, Huh-7, read-out: EC50 (YFV 17D, μM)
[2] = system: YFV 17D; conditions: read-out: EC50 against YFV; cited from earlier work

Row | Molecule | activity against YFV (words, SAR discussion) [1] | also measured
1 | 4-((1-((6-Acetylnaphthalen-1-yl)sulfonyl)-5-amino-1H-1,2,4-triazol-3-yl)amino)benzonitrile [RCB22056] | inactive | –
2 | N#Cc1c(Nc2ccc(Cl)cc2)n[nH]c1NS(=O)(=O)c1ccc2ccccc2c1 [RCB16002, N-(3-((4-Chlorophenyl)amino)-4-cyano-1H-pyrazol-5-yl)naphthalene-2-sulfonamide] | – | EC50 [1]: 7.1 µM
3 | N#Cc1c(Nc2ccc(F)cc2)n[nH]c1NS(=O)(=O)c1ccc2ccccc2c1 [RCB16003, N-(4-Cyano-3-((4-fluorophenyl)amino)-1H-pyrazol-5-yl)naphthalene-2-sulfonamide] | – | EC50 [2]: 3.2 µM
4 | N#Cc1c(Nc2ccc(F)c(F)c2)n[nH]c1NS(=O)(=O)c1ccc2ccccc2c1 [RCB16004, N-(4-Cyano-3-((3,4-difluorophenyl)amino)-1H-pyrazol-5-yl)naphthalene-2-sulfonamide] | – | EC50 [1]: > 36 µM
5 | COc1ccc(Nc2nc(N)n(S(=O)(=O)c3cccc4ccccc34)n2)cc1 [RCB16086, N^3-(4-Methoxyphenyl)-1-(naphthalen-1-ylsulfonyl)-1H-1,2,4-triazole-3,5-diamine] | complete loss of potency | –
6 | Nc1nc(Nc2ccc(Cl)c(Cl)c2)n(S(=O)(=O)c2ccc3ccccc3c2)n1 [RCB17160, N^5-(3,4-Dichlorophenyl)-1-(naphthalen-2-ylsulfonyl)-1H-1,2,4-triazole-3,5-diamine] | did not display any activity | –
7 | CC(=O)c1ccc2c(S(=O)(=O)n3nc(Nc4ccc(C#N)c(Cl)c4)nc3N)cccc2c1 [RCB22055, 4-((1-((6-Acetylnaphthalen-1-yl)sulfonyl)-5-amino-1H-1,2,4-triazol-3-yl)amino)-2-chlorobenzonitrile] | low micromolar activity | –
